Measurements: patent US20070293484A1, “Thiophene Heteroaryl Amines” (SUGEN, INC., priority 2004, published 2007)

How the values were obtained:
PDGFR = target: T1, PDGFR (Homo sapiens, UniProt P09619); experiment: PDGFR bioassay (ELISA, in vitro kinase activity); format: biochemical; conditions: PDGFR-β expressing NIH 3T3 cell lysate; read-out: IC50 (μM) PDGF-R
T1 construct: SUGEN, Inc; host or cells: NIH 3T3 cell lysate; receptor captured on plate with monoclonal anti-PDGFR antibody 28D4C10

GST-Flk1 = target: T2, GST-Flk1 (Mus musculus, UniProt P35918); experiment: GST-FLK-1 bioassay (ELISA, tyrosine kinase activity on poly(glu,tyr)); format: biochemical
T2 construct: GST-Flk1cd purified from sf9 recombinant baculovirus transformation (SUGEN, Inc.); host or cells: Sf9 insect cells (recombinant baculovirus)
T2 sequence (P35918 784-1345 limits assumed): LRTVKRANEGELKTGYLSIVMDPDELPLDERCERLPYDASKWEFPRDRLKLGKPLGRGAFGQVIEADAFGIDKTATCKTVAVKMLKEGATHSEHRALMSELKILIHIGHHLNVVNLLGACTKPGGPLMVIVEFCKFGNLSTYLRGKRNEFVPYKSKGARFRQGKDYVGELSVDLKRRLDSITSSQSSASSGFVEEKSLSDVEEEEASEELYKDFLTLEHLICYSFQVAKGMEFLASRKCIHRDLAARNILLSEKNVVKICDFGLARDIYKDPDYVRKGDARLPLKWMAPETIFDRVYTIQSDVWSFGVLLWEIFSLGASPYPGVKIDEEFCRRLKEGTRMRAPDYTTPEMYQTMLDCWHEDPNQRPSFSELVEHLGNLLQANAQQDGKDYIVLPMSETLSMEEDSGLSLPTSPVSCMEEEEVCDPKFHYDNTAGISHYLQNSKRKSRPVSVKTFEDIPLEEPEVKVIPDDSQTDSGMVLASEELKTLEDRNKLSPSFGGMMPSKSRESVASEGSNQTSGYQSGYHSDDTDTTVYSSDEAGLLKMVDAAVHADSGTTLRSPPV
Description: The assays described herein are performed in an ELISA (Enzyme-Linked Immunosorbent Sandwich Assay) format (Voller, et al., 1980, “Enzyme-Linked Immunosorbent Assay,” Manual of Clinical Immunology, 2d ed., Rose and Friedman, Am. Soc. Of Microbiology, Washington, D.C., pp. 359-371). The general procedure is as follows: a compound is introduced to cells expressing the test kinase, either naturally or recombinantly, for a selected period of time after which, if the test kinase is a receptor, a ligand known to activate the receptor is added. The cells are lysed and the lysate is transferred to the wells of an ELISA plate previously coated with a specific antibody recognizing the substrate of the enzymatic phosphorylation reaction. Non-substrate components of the cell lysate are washed away and the amount of phosphorylation on the substrate is detected with an antibody specifically recognizing phosphotyrosine compared with control cells that were not contacted with a test compound.
This assay analyzes the tyrosine kinase activity of GST-Flk1 on poly(glu,tyr) peptides.
• 1. Corning 96-well ELISA plates (Corning Catalog No. 5805-96). • 2. poly(glu,tyr) 4:1, lyophilizate (Sigma Catalog #P0275). • 3. Preparation of poly(glu,tyr)(pEY) coated assay plates: Coat 2 ug/well of poly(glu,tyr)(pEY) in 100 μL PBS, hold at room temperature for 2 hours or at 4° C. overnight. Cover plates well to prevent evaporation. • 4. PBS Buffer: for 1 L, mix 0.2 g KH2PO4, 1.15 g Na2HPO4, 0.2 g KCl and 8 g NaCl in approx. 900 ml dH2O. When all reagents have dissolved, adjust the pH to 7.2 with HCl. Bring total volume to 1 L with dH2O. • 5. PBST Buffer: to 1 L of PBS Buffer, add 1.0 ml Tween-20. • 6. TBB—Blocking Buffer: for 1 L, mix 1.21 g TRIS, 8.77 g NaCl, 1 ml TWEEN-20 in approximately 900 ml dH2O. Adjust pH to 7.2 with HCl. Add 10 g BSA, stir to dissolve. Bring total volume to 1 L with dH2O. Filter to remove particulate matter. • 7. 1% BSA in PBS: To make a 1× working solution, add 10 g BSA to approx. 990 ml PBS buffer, stir to dissolve. Adjust total volume to 1 L with PBS buffer, filter to remove particulate matter. • 8. 50 mM Hepes pH 7.5. • 9. GST-Flk1cd purified from sf9 recombinant baculovirus transformation (SUGEN, Inc.). • 10. 4% DMSO in dH2O. • 11. 10 mMATP in dH2O. • 12. 40 mM MnCl2 • 13. Kinase Dilution Buffer (KDB): mix 10 ml Hepes (pH 7.5), 1 ml 5M NaCl, 40 μL 100 mM sodium orthovanadate and 0.4 ml of 5% BSA in dH2O with 88.56 ml dH2O. • 14. NUNC 96-well V bottom polypropylene plates, Applied Scientific Catalog #AS-72092 • 15. EDTA: mix 14.12 g ethylenediaminetetraacetic acid (EDTA) to approx. 70 ml dH2O. Add 10 N NaOH until EDTA dissolves. Adjust pH to 8.0. Adjust total volume to 100 ml with dH2O. • 16. 1^0 Antibody Dilution Buffer: mix 10 ml of 5% BSA in PBS buffer with 89.5 ml TBST. • 17. Anti-phosphotyrosine monoclonal antibody conjugated to horseradish peroxidase (PY99 HRP, Santa Cruz Biotech). • 18. 2,2′-Azinobis(3-ethylbenzthiazoline-6-sulfonic acid (ABTS, Moss, Cat. No. ABST). • 19. 10% SDS. Procedure: • 1. Coat Corning 96-well ELISA plates with 2 μg of polyEY peptide in sterile PBS as described in step 3 of Materials and Reagents. • 2. Remove unbound liquid from wells by inverting plate. Wash once with TBST. Pat the plate on a paper towel to remove excess liquid. • 3. Add 100 μl of 1% BSA in PBS to each well. Incubate, with shaking, for 1 hr. at room temperature. • 4. Repeat step 2. • 5. Soak wells with 50 mM HEPES (pH7.5) (150 μl/well). • 6. Dilute test compound with dH2O/4% DMSO to 4 times the desired final assay concentration in 96-well polypropylene plates. • 7. Add 25 μl diluted test compound to ELISA plate. In control wells, place 25 μl of dH2O/4% DMSO. • 8. Add 25 μl of 40 mM MnCl2 with 4×ATP (2 μM) to each well. • 9. Add 25 μl 0.5M EDTA to negative control wells. • 10. Dilute GST-Flk1 to 0.005 μg (5 ng)/well with KDB. • 11. Add 50 μl of diluted enzyme to each well. • 12. Incubate, with shaking, for 15 minutes at room temperature. • 13. […]

T1 sequence (P09619 33-1106, species assumed): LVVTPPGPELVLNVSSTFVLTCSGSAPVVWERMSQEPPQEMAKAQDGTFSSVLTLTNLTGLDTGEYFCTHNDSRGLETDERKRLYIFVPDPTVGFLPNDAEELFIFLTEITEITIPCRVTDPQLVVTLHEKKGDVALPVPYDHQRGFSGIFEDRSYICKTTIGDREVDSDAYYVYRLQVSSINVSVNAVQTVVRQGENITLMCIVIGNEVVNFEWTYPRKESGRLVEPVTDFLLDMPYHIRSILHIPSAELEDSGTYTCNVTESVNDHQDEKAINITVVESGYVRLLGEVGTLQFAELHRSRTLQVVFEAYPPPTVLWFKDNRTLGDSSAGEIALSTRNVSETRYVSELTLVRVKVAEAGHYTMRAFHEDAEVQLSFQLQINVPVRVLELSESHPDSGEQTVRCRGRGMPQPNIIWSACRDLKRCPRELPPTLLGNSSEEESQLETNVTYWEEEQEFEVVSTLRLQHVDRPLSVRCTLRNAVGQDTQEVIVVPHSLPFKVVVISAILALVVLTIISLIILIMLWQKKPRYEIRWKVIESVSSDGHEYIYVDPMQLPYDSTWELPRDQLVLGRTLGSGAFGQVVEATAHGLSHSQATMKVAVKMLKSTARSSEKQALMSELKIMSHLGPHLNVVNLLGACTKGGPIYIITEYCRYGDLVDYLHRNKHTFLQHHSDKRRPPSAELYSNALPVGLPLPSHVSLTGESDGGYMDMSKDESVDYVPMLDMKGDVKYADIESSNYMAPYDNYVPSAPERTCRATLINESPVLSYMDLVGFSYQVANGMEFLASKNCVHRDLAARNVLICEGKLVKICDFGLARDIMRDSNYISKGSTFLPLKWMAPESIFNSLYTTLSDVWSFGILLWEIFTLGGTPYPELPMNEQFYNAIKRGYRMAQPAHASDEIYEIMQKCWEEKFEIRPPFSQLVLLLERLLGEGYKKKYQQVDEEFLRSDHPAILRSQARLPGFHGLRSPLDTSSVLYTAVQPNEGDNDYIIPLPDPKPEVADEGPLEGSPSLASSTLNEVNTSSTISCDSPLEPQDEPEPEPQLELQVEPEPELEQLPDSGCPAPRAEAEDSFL

| Structure (SMILES) | IC50 (PDGFR) [µM] | IC50 (GST-Flk1) [µM] |
| --- | --- | --- |
| O=C(Nc1cccc(Nc2ncc(-c3ccsc3)cn2)c1)N1CCC(N2CCCC2)CC1 [Example 54, 4-pyrrolidin-1-yl-piperidine-1-carboxylic acid [3-(5-thiophen-3-yl-pyrimidin-2-ylamino)-phenyl]-amide] | 0.18 | 2.3 |
| CN1CCN(C(=O)Nc2ccc(Nc3ncc(-c4ccsc4)cn3)cc2)CC1 [Example 35, 4-methyl-N-{4-[(5-thien-3-ylpyrimidin-2-yl)amino]phenyl}piperazine-1-carboxamide] | 0.47 | 5.4 |
| O=C(CN1CCCC1CN1CCCC1)Nc1cccc(Nc2ncc(-c3ccsc3)cn2)c1 (stereo not drawn) [Example 47, N-(3-(5-(thiophen-3-yl)pyrimidin-2-ylamino)phenyl)-2-(2-((pyrrolidin-1-yl)methyl)pyrrolidin-1-yl)acetamide] | 0.18 | 2.3 |
